Values quoted from earlier work in patent publication US20010022980A1, “Dietary supplement for individuals under stress” (Beth Israel Deaconess Medical Center, priority 1998, published 2001).

Tests used:
[1] = 2 to 5 g per day
[2] = males and females; 20 g per day
PCr = settings: athletes; about 20 g during exercise
tetanus toxoid = settings: given during 14 days of training (glutamine 14 g)
[3] = soldiers, 24 g in a sports bar
[4] = 20 g per day for five days, 3 g daily for remaining 9 weeks; weight training
inflammation = settings: rats
explicit memory = settings: college students; 25 grams; 90 minutes after ingestion

Compound: CN(CC(=O)O)C(=N)N [creatine]
- muscle creatine content [1]: increases
- blood pressure [2]: no change
- body fat [2]: no change
- lean body mass determined by DEXA [2]: increased
- plasma creatine kinase [2]: no change
- resynthesis of PCr after exercise (PCr): rapid resynthesis

Compound: NC(=O)CC[C@H](N)C(=O)O [glutamine]
- percentage of soldiers who had an induration >10 mm in response to tetanus toxoid (tetanus toxoid): 50%

Compound: CN(CC(=O)O)C(=N)N.O [creatine monohydrate]
- increase in body mass [3]: 1.5 kg
- increase in total repetitions over five sets of bench presses [3]: 14.4%
- reduction of time to complete an obstacle course ([3]; not significant): 7.6 ± 8.2 s
- decrease in body fat ([3]; p <0.05): 0.6%
- increase in fat free mass [4]: 4.4%
- increase in intracellular water [4]: 3.2%
- increase in total body water [4]: 5%
- strength (bench press and squat exercises) [4]: significant increase

Compound: CCCCC/C=C\C/C=C\C/C=C\CCCCC(=O)O [GLA, γ-linoleic acid]
- cellular phase of inflammation (polymorphonuclear leukocyte accumulation, phagocytosis, and lysosomal enzyme activity) (inflammation): suppressed

Compound: phosphatidylcholine
- explicit memory (serial learning task) (explicit memory): improve explicit memory

Compound: NCC(=O)O [glycine, reference compound]
- percentage of soldiers who had an induration >10 mm in response to tetanus toxoid (tetanus toxoid): 30%
